One assay addresses T1, PFKL (Homo sapiens, UniProt P17858).
T1 construct: expressed in transfected cells; host or cells: HEK 293T
T1 sequence (P17858 1-780): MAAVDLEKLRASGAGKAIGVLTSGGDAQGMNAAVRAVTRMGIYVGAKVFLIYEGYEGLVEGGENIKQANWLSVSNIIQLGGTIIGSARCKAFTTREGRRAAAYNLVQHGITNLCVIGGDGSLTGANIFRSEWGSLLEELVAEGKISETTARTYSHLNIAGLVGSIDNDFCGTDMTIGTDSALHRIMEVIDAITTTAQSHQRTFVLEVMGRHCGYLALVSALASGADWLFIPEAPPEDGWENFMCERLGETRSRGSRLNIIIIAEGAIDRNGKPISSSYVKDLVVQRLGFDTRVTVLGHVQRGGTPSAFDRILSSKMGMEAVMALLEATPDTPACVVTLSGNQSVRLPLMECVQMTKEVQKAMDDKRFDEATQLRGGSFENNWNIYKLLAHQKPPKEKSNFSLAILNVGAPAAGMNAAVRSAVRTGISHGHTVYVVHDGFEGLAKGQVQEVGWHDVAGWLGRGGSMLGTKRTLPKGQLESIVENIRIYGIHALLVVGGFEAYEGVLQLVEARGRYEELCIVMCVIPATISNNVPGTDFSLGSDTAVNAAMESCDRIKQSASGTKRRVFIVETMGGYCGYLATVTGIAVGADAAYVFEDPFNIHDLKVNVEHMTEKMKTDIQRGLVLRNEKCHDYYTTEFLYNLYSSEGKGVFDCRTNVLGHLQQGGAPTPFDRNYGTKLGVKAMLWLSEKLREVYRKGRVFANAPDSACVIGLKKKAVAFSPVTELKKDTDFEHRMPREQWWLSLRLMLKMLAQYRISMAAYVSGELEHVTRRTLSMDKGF
The experiment in a line: direct labeling of recombinantly expressed proteins by gel-based ABPP (WT vs lysine mutant). It is filed as binding. Particulars: PFKL K676, KA mutant; 10 μM probe, 1 h.

The target of another assay is T2, GSTO1 (Homo sapiens, UniProt P78417).
T2 construct: expressed in transfected cells; host or cells: HEK 293T
T2 sequence (P78417 1-241): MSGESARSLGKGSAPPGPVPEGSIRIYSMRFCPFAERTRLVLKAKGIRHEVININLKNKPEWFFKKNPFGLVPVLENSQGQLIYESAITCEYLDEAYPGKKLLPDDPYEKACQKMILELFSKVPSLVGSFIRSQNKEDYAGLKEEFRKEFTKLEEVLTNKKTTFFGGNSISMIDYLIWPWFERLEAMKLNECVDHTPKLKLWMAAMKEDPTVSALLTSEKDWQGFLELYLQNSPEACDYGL
Described as above. Type of assay: binding. The settings on record: GSTO1 K57, KR mutant; 10 μM probe, 1 h.

Results on six compounds are retold here after US20210255193A1, “LYSINE REACTIVE PROBES AND USES THEREOF” (The Scripps Research Institute, priority 2017, published 2021).

Consider `C#CCCC(=O)Oc1c(F)c(F)c(S(=O)(=O)[O-])c(F)c1F.[Na+]` [probe 1, reference compound], for which the “labeling of WT vs mutant protein by probe” value at PFKL and on GSTO1 was “PD (the WT labeled more than the mutant (>2x difference quantified))” throughout.
For `C#CCCC(=O)Oc1c(F)c(F)c(F)c(F)c1F` [probe 6, Pentafluorophenyl 4-pentynoate], the “labeling of WT vs mutant protein by probe” value at GSTO1 is “ND (the WT did not label more than the mutant (<2x difference quantified))”.
Take `C#Cc1ccc(C(=O)Oc2ccccc2[N+](=O)[O-])cc1` [probe 10, 2-Nitrophenyl 4-ethynylbenzoate]: on PFKL, the “labeling of WT vs mutant protein by probe” value is reported as “PD (the WT labeled more than the mutant (>2x difference quantified))”.
As for `C#Cc1ccc(C(=O)Oc2c(F)c(F)cc(F)c2F)cc1` [probe 12, 2,3,5,6-Tetrafluorophenyl 4-ethynylbenzoate], the “labeling of WT vs mutant protein by probe” value is “PD (the WT labeled more than the mutant (>2x difference quantified))” on PFKL and “ND (the WT did not label more than the mutant (<2x difference quantified))” on GSTO1.
In the case of `C#Cc1ccc(C(=O)Oc2c(F)c(F)c(F)c(F)c2F)cc1` [probe 13, Pentafluorophenyl 4-ethynylbenzoate], the “labeling of WT vs mutant protein by probe” value on PFKL is “PD (the WT labeled more than the mutant (>2x difference quantified))”; at GSTO1, “ND (the WT did not label more than the mutant (<2x difference quantified))”.
For `Cc1cc(C)n2c1C=C1C=CC(CCC(=O)Oc3c(F)c(F)c(S(=O)(=O)[O-])c(F)c3F)=[N+]1[B-]2(F)F.[Na+]` [probe 18, reference compound], the entries for the “labeling of WT vs mutant protein by probe” value on PFKL and on GSTO1 were “PD (the WT labeled more than the mutant (>2x difference quantified))” and “ND (the WT did not label more than the mutant (<2x difference quantified))”, respectively.
